Assays:
SPCSV = experiment: Virus accumulation (RT-qPCR of coat protein RNA) in coinfected sweetpotato plants grown in culture medium: SPCSV; type: in vivo, Sweet potato chlorotic stunt virus; conditions: for SPCSV_FC (fold change of viral accumulation): 50 μM in culture medium, 28 days, relative to DMSO control; for SPCSV accumulation reduced / viral titer SPCSV (log2 fold change relative to controls): plants in culture medium, 50 μM
Procedure: (§1) Since tests in culture medium consume smaller amounts of compounds and can be carried out under relatively controlled conditions, sweetpotato plants coinfected with SPCSV and SPFMV were grown in medium supplemented with one of the 30 inhibitor candidates at a concentration of 50 μM. Their effects on plant growth were monitored by imaging the plants once a week. […] In addition, virus accumulation was quantified by measuring the relative abundance of the transcripts encoding viral coat proteins using RT-qPCR ([32]). The effect of individual compounds on virus accumulation was estimated by comparing treated and control plants.
(§2) Sweetpotato plants cultivar 'Huachano' (accession CIP420065) were side-graft inoculated with both SPFMV (East African strain isolate Nam1) and SPCSV-Ug (East African serotype 2) as described previously ([62]). Plantlets were propagated by taking single-node stems grown in a plant culture medium ([33]). Next, plantlets with newly formed roots were transferred to glass tubes (18 by 150 mm) containing 10 ml of medium supplemented with either 50 μM compound (diluted in DMSO; final DMSO concentration, 0.1%) or only 0.1% DMSO as a control. For plant experiments in soil, plantlets were transferred to pots (6 by 6 by 10 cm) filled with a mixture of sand, humus, and washed soil. After 1 week, plants were treated by foliar spraying using either individual compounds at a single concentration (10 μM) (treatment) or water (control/mock) twice a week for 1 month. All plants were grown at 22°C with 60% humidity and a 16-h light/8-h dark photoperiod for 28 days in culture medium and for 41 days in soil. The Finnish National Plant Phenotyping Infrastructure (NaPPI) was used to monitor plant viral disease symptoms as described in our previous study ([33]). Four compounds were tested with the phenotyping platform in two independent batches, each of which included five biological replicates.
(§3) Leaf samples were collected from plants grown in culture medium or soil for 28 or 41 days, respectively, and frozen in liquid nitrogen. Total RNA was extracted using the Spectrum plant total RNA kit (Sigma-Aldrich). First-strand cDNA was synthesized using the Transcriptor first-strand cDNA synthesis kit (Roche, Basel, Switzerland). […] All RT-qPCR experiments were conducted in triplicate on three and five biological replicates from plants grown in culture medium and soil, respectively. The primer list can be found in our previous study ([33]).
(§4) For HTS, the activity of CSR3 was calculated by measuring the change in fluorescence as a function of the reaction time using MARS Data Analysis software (BMG Labtech). To evaluate the CSR3 inhibition efficiency of individual compounds, the PI of each compound was calculated using the slope values for the sample, positive control, and negative control according to the following equation: PI = 100 × [1 − (sample − positive)/(negative − positive)]%. IC50 and DSS values were calculated using concentration-specific PI values according to a previous study ([31]). Relative gene expression was calculated using the classical 2^−ΔΔ^CT method ([63]).

SPFMV = experiment: Virus accumulation (RT-qPCR of coat protein RNA) in coinfected sweetpotato plants grown in culture medium: SPFMV; type: in vivo, Sweet potato feathery mottle virus; conditions: for SPFMV_FC (fold change of viral accumulation): 50 μM in culture medium, 28 days, relative to DMSO control; for SPFMV accumulation reduced / viral titer SPFMV (log2 fold change relative to controls): plants in culture medium, 50 μM
Procedure: as §1, §2, §3, §4

CSR3 [1] = target: T1, CSR3 (Sweet potato chlorotic stunt virus, UniProt Q8JJW8); experiment: Binding affinity assay using SPR; conditions: for Kd: unit inferred, read-out: Steady State Affinity
T1 sequence (Q8JJW8 1-228): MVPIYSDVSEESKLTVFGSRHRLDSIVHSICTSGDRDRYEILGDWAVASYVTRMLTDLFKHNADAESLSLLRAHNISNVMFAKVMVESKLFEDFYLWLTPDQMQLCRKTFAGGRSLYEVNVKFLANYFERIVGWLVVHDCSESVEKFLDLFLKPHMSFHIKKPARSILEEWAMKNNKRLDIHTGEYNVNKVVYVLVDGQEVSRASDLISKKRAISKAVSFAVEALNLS
Procedure: (§5) Binding affinity assays were first carried out with the 99 commercial compounds using the MST method.
CSR3 was purified as described above and stored in PBS buffer. SPR was performed on a BiacoreT100 instrument (GE Healthcare) using a sensor S CM5 chip (GE Healthcare). CSR3 (10 ng/μl) was immobilized using the standard amine-coupling method according to the manufacturer’s instructions with immobilization buffer (10 mM sodium acetate [pH 4]); the final response unit (RU) value was 11,459. Compounds at a single concentration (100 μM) or consisting of 2-fold serial dilutions (3 μM to 200 μM) were flowed over the sensor surface using PBS buffer with 0.01 M HEPES, 0.05% surfactant P20, and 2% DMSO. […] To eliminate bulk interference by DMSO, a solvent correction consisting of DMSO at concentrations ranging from 1.5% to 2.8% was carried out for every 30 samples. Steady-state affinity (KD) values were determined using BiacoreT100 Evaluation software, v.2.04 (GE Healthcare).

sweetpotato plants = conditions: 50 μM in culture medium
CSR3 [2] = target: T1, CSR3; experiment: Binding affinity assay using MST; conditions: for Comments: MST behaviour of compound (V-shape response, fluorescence quenching, interference, aggregator); for Binding (Yes/No): MST binding call; for Binding (Yes/No) / Response Amplitude: Table S4; for Response Amplitude: MST response amplitude
Procedure: as §5
The labeled-protein solution containing 500 nM proteins and 40 nM dye was prepared in PBS buffer with 2% dimethyl sulfoxide (DMSO) for the assay. The 12 concentrations for each compound were obtained by 2-fold serial dilutions (0.2 μM to 400 μM). […] Two independent experiments were carried out in premium coated capillaries (NanoTemper, Munich, Germany) using a Monolith NT.Automated instrument (NanoTemper) with the power set at high (80%), the light-emitting diode (LED) power (pico red) set at 5%, and the on-time set at 20 s. The dissociation constant (Kd) was determined using the MO.Affinity Analysis program (NanoTemper).

[3] = SPR dose-response 3 μM to 200 μM, 25°C, numbers match M (cf. Fig 5A)

In the case of O=C1c2c(O)ccc(O)c2C(=O)c2c(NCCNCCO)ccc(NCCNCCO)c21 [FIMM000490], the “SPCSV_FC (fold change of viral accumulation)” value (SPCSV) is reported as 0.2453, the “SPFMV_FC (fold change of viral accumulation)” value (SPFMV) is reported as 1.747 and the Kd (CSR3 [1]; [3]) is reported as 137 nM. For the same compound, the Toxicity (sweetpotato plants) was “no”, the Comments (CSR3 [2]) was “Interference” and the “Binding (Yes/No)” value (CSR3 [2]) was “No”. The “Response Amplitude” value (CSR3 [2]) was 0.

In the case of O=C(O)c1ccc(C2Nc3c(Br)cccc3C3C=CCC32)cc1 (stereo not drawn) [FIMM022230], the “SPCSV_FC (fold change of viral accumulation)” value (SPCSV) is reported as 0.08458, the SPCSV accumulation reduced (SPCSV) is reported as “approximately 8 fold” and the “viral titer SPCSV (log2 fold change relative to controls)” value (SPCSV) is reported as −3.56. For the same compound, the “SPFMV_FC (fold change of viral accumulation)” value (SPFMV) was 0.2613, the SPFMV accumulation reduced (SPFMV) was ~4 fold and the “viral titer SPFMV (log2 fold change relative to controls)” value (SPFMV) was −1.93. For the same compound, the “KD (SPR)” value (CSR3 [1]; steady-state affinity, Fig 5A) was “millimolar range”, the Toxicity (sweetpotato plants) was “no” and the “Binding (Yes/No)” value (CSR3 [2]) was “No”. The “Response Amplitude” value (CSR3 [2]) was 68.

With Cc1ccc(C2Nc3ccc(C(=O)O)cc3C3C=CCC32)cc1 (stereo not drawn) [FIMM031755] the “SPCSV_FC (fold change of viral accumulation)” value (SPCSV) was 0.5163, the SPCSV accumulation reduced (SPCSV) was ~2 fold and the “viral titer SPCSV (log2 fold change relative to controls)” value (SPCSV) was −0.95. The “SPFMV_FC (fold change of viral accumulation)” value (SPFMV) was 0.5653, the SPFMV accumulation reduced (SPFMV) was ~2 fold and the “viral titer SPFMV (log2 fold change relative to controls)” value (SPFMV) was −0.82. For the same compound, the Kd (CSR3 [1]; [3]) was 3760 nM, the Toxicity (sweetpotato plants) was “no” and the “Binding (Yes/No)” value (CSR3 [2]) was “No”. For the same compound, the “Response Amplitude” value (CSR3 [2]) was 0.

For COc1cc(C=C2C(=O)NC(=S)NC2=O)ccc1OCc1ccccc1[N+](=O)[O-] [FIMM101864], the “SPCSV_FC (fold change of viral accumulation)” value (SPCSV) was 0.5034, the “SPFMV_FC (fold change of viral accumulation)” value (SPFMV) was 1.376 and the “Steady State Affinity” value (CSR3 [1]; SPR dose-response 3 μM to 200 μM, 25°C, unit not given, numbers match M (cf. Fig 5A)) was “non binder”. For the same compound, the Comments (CSR3 [2]) was “Aggregator”, the “Binding (Yes/No)” value (CSR3 [2]) was “No” and the “Response Amplitude” value (CSR3 [2]) was 0.

Reference: paper PMC8315922, “In Vitro Identification and In Vivo Confirmation of Inhibitors for Sweet Potato Chlorotic Stunt Virus RNA Silencing Suppressor, a Viral RNase III” (Journal of Virology, 2021)
